These results are taken from patent publication US20250136617A1 (The Regents of the University of Colorado, A Body Corporate, priority 2022, published 2025).

The test system of one experiment is miR-29a. In words: qPCR of miR-29a expression in human dermal fibroblasts. Type of experiment: cell-based. The settings on record: 24 hours, 0.1, 1 and 10 uM. As to the method:
An additional secondary screen was performed to further validate activity of UCUF-728 as a selective CXCR4 receptor modulator. Human diabetic and non-diabetic fibroblasts were cultured with increasing concentrations of the compound. The cells were incubated for 24 hours and then total cellular RNA was isolated to examine the ability of the compound to correct the abnormal expression of miR15b, and miR29a. It has been shown that human diabetic skin has increased miR-15b expression at baseline compared to non-diabetic skin (Xu et al. “The role of microRNA-15b in the impaired angiogenesis in diabetic wounds.” Wound Repair Regen 2014; 22(5):671-7).
Diabetic and non-diabetic fibroblasts were cultured with increasing concentrations of a UCUF-965 compound. The cells were incubated for 24 hours and then total cellular RNA was isolated to examine the ability of the compound to correct the abnormal expression of miR15b, and miR29a. Angiogenesis is regulated by hypoxia and the production of growth factors such as Hypoxia-inducible Factor 1-alpha (HIF-1a) and Vascular Endothelial Growth Factor (VEGF). […] MicroRNA-15b (miR-15b) has been described as a key negative modulator of angiogenesis. Under hypoxia, miR-15b is repressed, resulting in an increased level of VEGF. Over-expression of miR-15b also markedly attenuates hypoxia induced vessel tube formation and cell migration. […]

Experiment [1] concerns diabetic wounds in Db mice. Put plainly: Diabetic wound healing, full-thickness excisional 8 mm wounds in Db mice. Type of experiment: in vivo. The conditions noted are these: for reduction of wound closure time vs PBS: 10 μM; for wound surface area vs PBS: post-injury day 6. As to the method:
The ability of compound UCUF-728 to improve diabetic wound healing in vivo was examined. Full-thickness excisional 8 mm wounds were created in Db mice and were immediately treated with 10 μM UCUF-728 or phosphate-buffered saline (PBS) control. Wound healing over the course of 22 days was monitored. Initial wound size was calculated immediately after wounding, and wound closure was assessed over time as the percentage of initial wound area. […] The effect of UCUF-728 treatment on angiogenesis was assessed using immunohistochemistry for endothelial marker CD31. Representative photos of immunoperoxidase staining for CD31 at 7 days in diabetic wounds treated with PBS or UCUF-728 are shown in FIG. 8A.
The ability of UCUF-965, a thiadiazine compound, to improve diabetic wound healing in vivo was examined. Full-thickness excisional 8 mm wounds were created in Db mice and were immediately treated with 10 μM UCUF-965 or PBS control. Wound healing over the course of 22 days was monitored. Initial wound size was calculated immediately after wounding, and wound closure was assessed over time as the percentage of initial wound area. FIG. 13 indicated the wound healing effect of UCUF-965 topical administration on excision wound model on different days after injury. […] UCUF-965-treated diabetic wounds closed around 14 days after treatment whereas control PBS-treated wounds healed at day 22. UCUF-965 is a promising positive allosteric modulator of CXCR4 signaling to treat diabetic would healing.
All animal experiments were approved by the Institutional Animal Care and Use Committee at the University of Colorado Denver—Anschutz Medical Campus, and experimental protocols followed the guidelines described in the NIH Guide for the Care and Use of Laboratory Animals. In these experiments, 10 week old, female, genetically diabetic C57BKS.Cg-m/Leprdb/J (Db) mice and heterozygous, non-diabetic (non-Db), age-matched female controls from the Jackson Laboratory (Bar Harbor, ME) were used. Mice were anesthetized with inhaled isoflurane. Each mouse was shaved and depilated before wounding. The dorsal skin was swabbed with alcohol and Betadine (Purdue Pharma, Stamford, CT). Each mouse received a single, full-thickness dorsal wound (including panniculus carnosum) with an 8-mm punch biopsy (Miltex Inc, York, PA). After wounding, a Hamilton syringe was used to deliver 50 μL of either 10 uM test compound or PBS, as a control. 10 μL were injected intradermally at 12, 3, 6 and 9 o'clock and at the wound base. […] Mice pictures were taken every other day, wound size was analyzed by Image J. A full-thickness skin sample, centered on the wound, was harvested 3 and 7 days after surgery (n=5 per timepoint).

Entries after “also recorded” stand apart in the source; their conditions may differ.

As to `COc1ccc(OC)c(NS(=O)(=O)c2ccc(-c3cnc(C4CC4)o3)cc2)c1` [Oxazole Entry 19, 4-(2-Cyclopropyloxazol-5-yl)-N-(2,5-dimethoxyphenyl)benzenesulfonamide], the “miR-29a expression” value with miR-29a (listed as UCUF-728) was “significant decrease in miR-29a expression level; also recorded: reduced miR-29a expression”. For the same molecule, in experiment [1], the “reduction of wound closure time vs PBS” value is 36% and the “wound surface area vs PBS” value is given as “decrease in wound surface area”.

For `CCOc1ccccc1-c1nnc2n1N=C(c1ccc(N3CCCC3)cc1)CS2` [Thiadiazine Entry 23, 3-(2-ethoxyphenyl)-6-(4-(pyrrolidin-1-yl)phenyl)-7H-[1,2,4]triazolo[3,4-b][1,3,4]thiadiazine], the “miR-29a expression” value in the experiment with miR-29a (listed as UCUF-965) was “significant decrease in miR-29a; also recorded: decreased”. Besides, in experiment [1], the “reduction of wound closure time vs PBS” value is 36% and the “wound surface area vs PBS” value is listed as “decrease in wound surface area”.
